Measurements published in the supplement of paper PMC10307832.

Columns and labels:
Assay in all cases: relative viability (nuclei count vs DMSO), 5 days (fraction); higher = more cells survive
TPCA-1 + Lapatinib = compound: C1=CC(=CC=C1C2=CC(=C(S2)NC(=O)N)C(=O)N)F [TPCA-1] + CS(=O)(=O)CCNCc1ccc(-c2ccc3ncnc(Nc4ccc(OCc5cccc(F)c5)c(Cl)c4)c3c2)o1 [Lapatinib] (partner 2 µM)
Method in brief: (§1)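 Relative viability is defined as nuclei in treated wells over nuclei in vehicle wells. Duplicate plates were run and medians reported. Lung cancer cell lines in 1536-well plates were dosed by pin tool one day after seeding, with one drug or with a fixed anchor-drug dose plus five library-drug doses (not always all listed) in √10 steps, and nuclei were counted after 5 days.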

[1] = compound: C[C@]12O[C@H](C[C@]1(O)CO)n1c3ccccc3c3c4c(c5c6ccccc6n2c5c31)CNC4=O [Lestaurtinib] + N=C(N)NC(=N)NCCc1ccccc1 [Phenformin] (partner 250 µM)
Method in brief: as §1

Lestaurtinib + Olaparib = compound: C[C@]12O[C@H](C[C@]1(O)CO)n1c3ccccc3c3c4c(c5c6ccccc6n2c5c31)CNC4=O [Lestaurtinib] + O=C(c1cc(Cc2n[nH]c(=O)c3ccccc23)ccc1F)N1CCN(C(=O)C2CC2)CC1 [Olaparib] (partner 8 µM)
Method in brief: as §1

[2] = compound: C1/C(=C\C2=CC=CS2)/C(=O)/C(=C/C3=CC=CS3)/C1 + N=C(N)NC(=N)NCCc1ccccc1 [Phenformin] (partner 250 µM)
Method in brief: as §1

Cell Line	relative viability (TPCA-1 + Lapatinib; first compound 0.04 µM)	relative viability (TPCA-1 + Lapatinib; first compound 0.1265 µM)	relative viability (TPCA-1 + Lapatinib; first compound 0.4 µM)	relative viability (TPCA-1 + Lapatinib; first compound 1.265 µM)	relative viability (TPCA-1 + Lapatinib; first compound 4 µM)	relative viability ([1]; first compound 0.005 µM)	relative viability ([1]; first compound 0.01581 µM)	relative viability ([1]; first compound 0.05 µM)	relative viability ([1]; first compound 0.1581 µM)	relative viability ([1]; first compound 0.5 µM)	relative viability (Lestaurtinib + Olaparib; first compound 0.005 µM)	relative viability (Lestaurtinib + Olaparib; first compound 0.01581 µM)	relative viability (Lestaurtinib + Olaparib; first compound 0.05 µM)	relative viability (Lestaurtinib + Olaparib; first compound 0.1581 µM)	relative viability (Lestaurtinib + Olaparib; first compound 0.5 µM)	relative viability ([2]; first compound 0.2 µM)	relative viability ([2]; first compound 0.6325 µM)	relative viability ([2]; first compound 2 µM)	relative viability ([2]; first compound 6.325 µM)	relative viability ([2]; first compound 20 µM)
LK-2	1.11	0.636	0.879	0.874	0.419	0.542	0.738	0.275	0.233	0.217	0.767	0.896	0.602	0.466	0.133	0.576	0.505	0.622	0.379	0.483
LOU-NH91	0.796	0.717	0.753	0.779	0.596	0.677	0.722	0.647	0.506	0.362	0.894	0.903	0.89	0.712	0.531	0.696	0.757	0.843	0.67	0.736
LU99A	1.02	0.872	1.11	0.81	0.426	0.819	0.76	0.627	0.438	0.315	0.211	0.25	0.161	0.196	0.142	0.771	0.819	0.857	0.819	0.801
LXF-289	0.914	0.927	0.807	0.831	0.726	0.515	0.498	0.42	0.302	0.213	1.09	1.08	0.753	0.852	0.172	0.553	0.536	0.554	0.459	0.513
NCI-H23	1.06	0.96	1.05	1	0.349	0.835	0.756	0.762	0.813	0.457	0.327	0.295	0.291	0.301	0.203	0.775	0.863	0.828	0.78	0.699
NCI-H322M	0.646	0.612	0.589	0.65	0.492	0.689	0.694	0.478	0.517	0.393	0.823	0.622	–	0.765	0.521	0.85	0.814	0.923	0.628	0.768
NCI-H358	0.479	0.428	0.462	0.361	0.334	0.338	0.295	0.208	0.137	0.0849	0.548	0.396	0.408	0.322	0.141	0.358	0.303	0.428	–	0.281
NCI-H460	1.26	0.982	1.12	0.9	0.335	0.583	0.533	0.401	0.307	0.0805	0.511	0.532	0.449	0.516	0.429	0.543	0.568	0.519	0.344	0.522
NCI-H520	0.905	0.752	0.879	0.756	0.168	0.648	0.744	0.44	0.313	0.2	0.383	0.421	0.315	0.319	0.254	0.744	0.605	0.766	0.535	0.443
NCI-H596	1.06	1.08	1.15	1.13	1.07	0.699	0.88	0.557	0.882	0.723	0.646	0.669	0.61	0.66	0.696	0.711	0.799	0.846	0.78	0.857
NCI-H647	1.34	0.919	1.06	0.671	0.466	0.354	0.444	0.181	0.11	0.104	0.67	0.67	0.186	0.211	0.108	0.55	0.505	0.579	0.474	0.485
NCI-H650	1.03	1.05	0.93	0.357	0.487	0.427	0.415	0.362	0.265	0.314	0.43	0.413	0.382	0.319	0.28	0.43	0.442	0.465	0.45	0.449
NCI-H661	0.632	0.448	0.562	0.522	0.387	0.271	0.277	0.303	0.251	0.248	0.813	0.754	0.684	0.735	0.419	0.288	0.259	0.275	0.253	0.307
NCI-H727	0.83	0.772	0.694	0.815	0.738	0.475	0.655	0.648	0.515	0.298	0.812	0.604	0.731	–	0.678	0.64	0.642	0.671	0.525	0.494
NCI-H838	1.14	0.864	1.12	0.598	0.565	0.508	0.543	0.475	0.227	0.131	0.911	0.796	0.549	0.348	0.162	0.689	0.541	0.687	0.65	0.519
